The values that follow come from patent US20220226298A1, “GPR40 AGONISTS” (Kallyope, Inc., priority 2019, published 2022).

Structures are written as SMILES. Where only a bound is given, the exact number is not on record here.

The nature of series [1]: In vivo plasma levels in mice. The conditions noted are these: mouse, oral, 30 mg/kg; male C57BL/6J mice, dose 30 mpk, plasma concentration of test article (parent) 30 min post dose; read-out: 30 min Exposure: Parent. How it is done: Male C57BL/6J mice 10-12 weeks old were acclimated to dosing (e.g., oral gavage) 2-3 times prior to the study. On the day of the study, food was removed for 5-6 hours, then the mice were dosed with test article or vehicle (e.g., by oral gavage at a volume of 10 mL/kg). Animals were euthanized with carbon dioxide typically 30 min post dose. Blood was collected via cardiac puncture for measurement of plasma concentrations of test article (parent) or metabolite resulting from ester cleavage.

For another series, the target named is T1, human GPR40 (Homo sapiens, UniProt O14842).
T1 construct: host or cells: CHO-K1
T1 sequence (O14842 whole entry): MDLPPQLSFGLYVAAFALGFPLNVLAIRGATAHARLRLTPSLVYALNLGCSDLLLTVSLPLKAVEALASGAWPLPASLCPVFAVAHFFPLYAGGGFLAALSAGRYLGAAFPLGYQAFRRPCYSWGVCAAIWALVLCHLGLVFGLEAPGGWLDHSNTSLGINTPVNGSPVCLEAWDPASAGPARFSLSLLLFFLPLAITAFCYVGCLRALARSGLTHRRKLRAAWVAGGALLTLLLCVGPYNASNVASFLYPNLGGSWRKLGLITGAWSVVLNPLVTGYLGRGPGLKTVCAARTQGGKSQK
In words: Inositol phosphate accumulation assay (IP1 HTRF) in CHO-K1 cells expressing human GPR40. The format is cell-based. Particulars: 90 min stimulation. How it is done:
CHO-KI cells expressing human GPR40 were purchased from DiscoverX (95-1005C2). HEK293 cells expressing mouse FFAR1 were prepared using a mouse FFAR1 carrying plasmid purchased from OriGene Technologies (MR222997). The cells were transfected using Lipofectamine 2000 using manufacturer instructions and stable cell line was established from a single cell using geneticine selection. Assay ready frozen (ARF) cells were prepared and used throughout the study.
The assay was performed in a 384-well plate format using IP1 assay kit from Cis-Bio. ARF cells expressing FFAR1 (mouse and human) were thawed, washed and then plated in the appropriate medium (F12 based medium for CHO hFFAR1 and DMEM based medium for HEK293 mFFAR1—both were supplemented with 10% FBS and penicillin/streptomycin). 20 μL of 3.5×10^5 cells/mL were plated on a Poly D-Lysine coated 384-well white plate. The cells were then incubated for 16 hr at 37° C./5% CO2. After 16 hr the medium was removed and 15 μL of stimulation buffer containing the test compounds was added to the cells. The plates were then incubated for 90 min at 37° C./5% CO2. 5 μL of detection buffer (prepared as described in the IP-one kit) was added to each well and the plates were incubated at RT for 1 hr.
[…] was measured using ClarioSTAR plate reader, calculating the ratio between emissions at 665 nm and 620 nm (HTRF ratio). HTRF ratio for positive (Max) and negative (Min) controls were used to normalize HTRF data and generate values for % activity. EC50 and Max activity values were determined using a standard 4-parameter fit.
(In general: Time-resolved FRET reads energy transfer from a long-lived donor to a nearby acceptor.)

Usually EC50 stands for the concentration that produces a half-maximal response. Higher therefore signals a need for much substance.

Turning to `COc1cc(-c2ccc(C(=O)Oc3cccc([C@@H](CC(=O)O)C4CC4)c3)cc2CN(C(C)C)C(C)C)c(F)cn1` [Compound 15, (S)-3-cyclopropyl-3-(3-((3-((diisopropylamino)methyl)-4-(5-fluoro-2-methoxypyridin-4-yl)benzoyl)oxy)phenyl)propanoic acid], the concentration at 30 min in series [1] was less than 2 nM. The compound further displayed an EC50 on human GPR40 of no more than 10 nM. In the same order, the values of `COc1cc(-c2ccc(C(=O)Oc3cccc([C@H](C4CC4)[C@H](C)C(=O)O)c3)cc2CN(C(C)C)C(C)C)c(F)cn1` [Compound 26, (2S,3R)-3-cyclopropyl-3-(3-((3-((diisopropylamino)methyl)-4-(5-fluoro-2-methoxypyridin-4-yl)benzoyl)oxy)phenyl)-2-methylpropanoic acid] are less than 2 nM and no more than 10 nM. In the same order, the values of `COc1cc(-c2ccc(C(=O)Oc3cccc([C@H](C4CC4)[C@@](C)(F)C(=O)O)c3)cc2CN(C(C)C)C(C)C)c(F)cn1` [Compound 36, (2R,3S)-3-cyclopropyl-3-(3-((3-((diisopropylamino)methyl)-4-(5-fluoro-2-methoxypyridin-4-yl)benzoyl)oxy)phenyl)-2-fluoro-2-methylpropanoic acid] are less than 5 nM and no more than 10 nM. In turn, `COc1cc(-c2cc(F)c(OC(=O)c3cccc([C@H](C4CC4)[C@H](C)C(=O)O)c3)cc2CN(C(C)C)C(C)C)c(F)cn1` [Compound 60] gave an EC50 at human GPR40 of no more than 10 nM. `COc1cc(-c2cc(C)c(OC(=O)c3cccc([C@H](C4CC4)[C@H](C)C(=O)O)c3)cc2CN(C(C)C)C(C)C)c(F)cn1` [Compound 61] yielded an EC50 on human GPR40 of no more than 10 nM. `COc1ccc(F)c([C@H]2CC[C@H](C(=O)Oc3cccc([C@H](C4CC4)[C@@](C)(F)C(=O)O)c3)CC2)c1` [Compound 62] showed an EC50 at human GPR40 of no more than 10 nM. For the compound `COc1cc(-c2ccc(OC(=O)c3cccc([C@H](C4CC4)[C@@](C)(F)C(=O)O)c3)cc2CN(C(C)C)C(C)C)c(F)cn1` [Compound 63, (2R, 3S)-3-cyclopropyl-3-(3-((3-((diisopropylamino)methyl)-4-(5-fluoro-2-methoxypyridin-4-yl)phenoxy)carbonyl)phenyl)-2-fluoro-2-methylpropanoic acid], the 50% effective concentration (EC50) on human GPR40 was no more than 10 nM. In the case of `Cc1cc(-c2cc(O)ncc2F)c(CN(C(C)C)C(C)C)cc1C(=O)Oc1cccc([C@H](C2CC2)[C@@](C)(F)C(=O)O)c1` [Compound 64, (2R,3S)-3-cyclopropyl-3-(3-((5-((diisopropylamino)methyl)-4-(5-fluoro-2-hydroxypyridin-4-yl)-2-methylbenzoyl)oxy)phenyl)-2-fluoro-2-methylpropanoic acid], the EC50 at human GPR40 was greater than 500 nM.

`COc1cc(-c2ccc(C(=O)Oc3cccc([C@H](C4CC4)[C@H](C)C(=O)OCc4oc(=O)oc4C)c3)cc2CN(C(C)C)C(C)C)c(F)cn1` [Compound 65, 3-((1R, 2S)-1-cyclopropyl-2-methyl-3-((5-methyl-2-oxo-1,3-dioxol-4-yl)methoxy)-3-oxopropyl)phenyl 3-((diisopropylamino)methyl)-4-(5-fluoro-2-methoxypyridin-4-yl)benzoate] showed an EC50 at human GPR40 of no more than 10 nM. On human GPR40, `COc1cc(-c2ccc(C(=O)Oc3cccc(C(CP(C)(=O)O)C4CC4)c3)cc2CN(C(C)C)C(C)C)c(F)cn1` (centres unmarked) [Compound 66, (2-cyclopropyl-2-(3-((3-((diisopropylamino)methyl)-4-(5-fluoro-2-methoxypyridin-4-yl)benzoyl)oxy)phenyl)ethyl)(methyl)phosphinic acid] returned an EC50 greater than 500 nM. In turn, `COc1cc(-c2ccc(C(=O)Oc3cccc(C(CS(=O)(=O)O)C4CC4)c3)cc2CN(C(C)C)C(C)C)c(F)cn1` (centres unmarked) [Compound 67, 2-cyclopropyl-2-(3-((3-((diisopropylamino)methyl)-4-(5-fluoro-2-methoxypyridin-4-yl)benzoyl)oxy)phenyl)ethanesulfonic acid] yielded an EC50 at human GPR40 greater than 500 nM. On the same count and under the same terms, the figure for `COc1cc(-c2ccc(C(=O)Oc3cccc([C@H](C4CC4)[C@H](C)C(=O)OCCP(=O)(O)O)c3)cc2CN(C(C)C)C(C)C)c(F)cn1` [Compound 68, (2-(((2S, 3R)-3-cyclopropyl-3-(3-((3-((diisopropylamino)methyl)-4-(5-fluoro-2-methoxypyridin-4-yl)benzoyl)oxy)phenyl)-2-methylpropanoyl)oxy)ethyl)phosphonic acid] is 100 to 500 nM; for `COc1cc(-c2ccc(C(=O)Oc3cccc([C@H](C4CC4)[C@H](C)C(=O)O)c3F)cc2CN(C(C)C)C(C)C)c(F)cn1` [Compound 69, (2S,3R)-3-cyclopropyl-3-[3-[3-[(diisopropylamino)methyl]-4-(5-fluoro-2-methoxy-4-pyridyl)benzoyl]oxy-2-fluoro-phenyl]-2-methyl-propanoic acid] it is no more than 10 nM.

In the case of `COc1cc(-c2cc(C)c(C(=O)Oc3cccc(C(CP(C)(=O)O)C4CC4)c3)cc2CN(C(C)C)C(C)C)c(F)cn1` (centres unmarked) [Compound 70, (2-cyclopropyl-2-(3-((5-((diisopropylamino)methyl)-4-(5-fluoro-2-methoxypyridin-4-yl)-2-methylbenzoyl)oxy)phenyl)ethyl)(methyl)phosphinic acid], at human GPR40, the EC50 was greater than 500 nM.
